For orientation: Ki means a measure of affinity in units of concentration, obtained from inhibition or displacement. Lower therefore signals tighter binding. A word on the IC50: it is the concentration needed to halve the response being measured. Low readings indicate inhibition by little substance, high ones a need for much substance.

We go through twelve molecules from ChEMBL document CHEMBL5465560, “Selectivity Literature for EUbOPEN Chemogenomic Library” (2024).

SMILES strings stand for the structures.

In assay [1] the test system is Hepatocyte growth factor receptor (Homo sapiens), P08581 [M1250T]. As to conditions: at 10 µM.
Assay [2] deals with T1, Tyrosine-protein kinase ITK/TSK (Homo sapiens) (UniProt Q08881).
T1 sequence (whole entry): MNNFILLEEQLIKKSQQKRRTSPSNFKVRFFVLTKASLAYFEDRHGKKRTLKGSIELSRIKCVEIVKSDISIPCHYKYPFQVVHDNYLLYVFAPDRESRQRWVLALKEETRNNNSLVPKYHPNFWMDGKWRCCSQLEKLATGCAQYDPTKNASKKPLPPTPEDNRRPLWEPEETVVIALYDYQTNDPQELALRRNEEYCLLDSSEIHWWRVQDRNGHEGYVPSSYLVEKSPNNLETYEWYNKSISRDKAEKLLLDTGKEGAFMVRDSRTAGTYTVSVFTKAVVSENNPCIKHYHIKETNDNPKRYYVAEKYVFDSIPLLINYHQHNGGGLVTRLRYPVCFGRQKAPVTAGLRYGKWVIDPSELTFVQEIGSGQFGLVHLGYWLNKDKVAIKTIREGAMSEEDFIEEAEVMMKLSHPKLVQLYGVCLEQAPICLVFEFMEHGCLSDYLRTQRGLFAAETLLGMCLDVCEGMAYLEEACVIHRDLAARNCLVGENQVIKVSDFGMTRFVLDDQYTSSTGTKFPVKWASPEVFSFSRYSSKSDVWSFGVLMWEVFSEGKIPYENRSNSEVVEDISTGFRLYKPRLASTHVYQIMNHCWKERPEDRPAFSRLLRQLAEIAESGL
The note with it: at 10 µM.

Assay [3] addresses Tyrosine-protein kinase JAK2 (Homo sapiens, UniProt O60674). The assay can be described thus: Selectivity interaction (Kinase counterscreening (biochemical assay)) EUB0000604a JAK2. In general terms: A counterscreen serves to expose hits that act by an unwanted route or on another target.
The target of assay [4] is Death-associated protein kinase 3 (Homo sapiens) (UniProt O43293). As to the kind of experiment: Selectivity interaction (KinomeScan (DiscoverX)) EUB0000045b DAPK3.
The target in assay [5] is STE20/SPS1-related proline-alanine-rich protein kinase (Homo sapiens) (UniProt Q9UEW8). The assay can be described thus: Selectivity interaction (ProQinase) EUB0000171b STK39.
Assay [6] has as its target Epithelial discoidin domain-containing receptor 1 (Homo sapiens) (UniProt Q08345). The assay can be described thus: Selectivity interaction (Ambit KINOMEscan and KiNATiv profiling in Jurkat cells) EUB0000090b DDR1. The note with it: at 1 µM. The class given is cell-based.
The target of assay [7] is Rho-associated protein kinase 2 (Homo sapiens, UniProt O75116). The assay can be described thus: Selectivity interaction (Kinase panel (33PanQinase(R) Activity Assay)) EUB0000877a ROCK2.
The target of assay [8] is Cyclin-dependent kinase 8 (Homo sapiens, UniProt P49336). The assay can be described thus: Selectivity interaction (KinomeScan (DiscoverX)) EUB0000655a CDK8. As to conditions: at 10 µM.
Assay [9] addresses Tyrosine-protein kinase SYK (Homo sapiens, UniProt P43405). As to the kind of experiment: Selectivity interaction (KinomeScan (DiscoverX)) EUB0000655a SYK. The note with it: at 10 µM.
Assay [10] addresses T2, Serine/threonine-protein kinase ICK (Homo sapiens) (UniProt Q9UPZ9).
T2 sequence (whole entry): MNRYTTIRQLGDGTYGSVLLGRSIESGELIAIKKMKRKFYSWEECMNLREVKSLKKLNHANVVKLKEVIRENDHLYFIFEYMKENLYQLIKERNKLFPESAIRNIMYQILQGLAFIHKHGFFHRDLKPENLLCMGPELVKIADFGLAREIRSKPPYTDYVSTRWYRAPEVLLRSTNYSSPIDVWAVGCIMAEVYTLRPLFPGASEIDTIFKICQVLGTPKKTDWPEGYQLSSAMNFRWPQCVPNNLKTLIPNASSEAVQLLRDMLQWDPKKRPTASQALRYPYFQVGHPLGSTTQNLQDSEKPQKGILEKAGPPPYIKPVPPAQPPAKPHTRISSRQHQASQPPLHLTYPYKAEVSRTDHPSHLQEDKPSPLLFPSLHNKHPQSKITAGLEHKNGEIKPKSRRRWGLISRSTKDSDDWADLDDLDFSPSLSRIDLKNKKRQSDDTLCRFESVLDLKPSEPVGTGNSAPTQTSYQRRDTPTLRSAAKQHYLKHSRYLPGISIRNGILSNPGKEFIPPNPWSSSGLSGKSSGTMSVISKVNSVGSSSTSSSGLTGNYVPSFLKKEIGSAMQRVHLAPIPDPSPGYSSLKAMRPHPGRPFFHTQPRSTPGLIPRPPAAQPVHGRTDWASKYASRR
The assay can be described thus: Selectivity interaction (KinomeScan (DiscoverX)) EUB0000092b ICK. As to conditions: at 10 µM.

In assay [11] the target is T3, Serine/threonine-protein kinase RIO1 (Homo sapiens) (UniProt Q9BRS2).
T3 sequence (whole entry): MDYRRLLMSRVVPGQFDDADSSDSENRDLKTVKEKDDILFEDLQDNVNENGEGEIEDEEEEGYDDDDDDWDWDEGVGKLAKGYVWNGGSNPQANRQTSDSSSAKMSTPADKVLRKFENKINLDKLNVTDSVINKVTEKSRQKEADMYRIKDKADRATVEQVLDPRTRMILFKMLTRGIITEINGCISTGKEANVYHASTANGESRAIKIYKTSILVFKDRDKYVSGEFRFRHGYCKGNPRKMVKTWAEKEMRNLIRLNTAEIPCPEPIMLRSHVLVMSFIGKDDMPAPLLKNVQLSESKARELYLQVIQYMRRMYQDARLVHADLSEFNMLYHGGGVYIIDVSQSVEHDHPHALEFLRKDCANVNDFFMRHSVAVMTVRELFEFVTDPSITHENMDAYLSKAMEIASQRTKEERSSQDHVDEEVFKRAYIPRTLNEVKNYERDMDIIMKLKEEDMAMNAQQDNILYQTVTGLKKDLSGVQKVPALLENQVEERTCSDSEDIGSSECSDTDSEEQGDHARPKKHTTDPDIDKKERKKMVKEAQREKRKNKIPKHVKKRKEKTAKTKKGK
The assay can be described thus: Selectivity interaction (Kinase panel (DSF assay)) EUB0001558a RIOK1. (DSF heats the sample and reads unfolding from a dye or from intrinsic fluorescence.)

For assay [12], the target named is 5-hydroxytryptamine receptor 7 (Homo sapiens) (UniProt P34969). As to the kind of experiment: Selectivity interaction (GPCR panel (PDSP screen)) EUB0001079a HTR7. As to conditions: at 10 µM.
Assay [13] addresses STE20-like serine/threonine-protein kinase (Homo sapiens, UniProt Q9H2G2). As to the kind of experiment: Selectivity interaction (Kinase panel (KiNativ target engagement assay in Jurkat cells)) EUB0001635a SLK. The class given is cell-based. The note with it: Selectivity number of off-targets 0.0, Selectivity number of targets 233.0, Source Knowledge https://www.sciencedirect.com/science/article/pii/S2451945619300674?via%3Dihub, at 1 µM.

Death-associated protein kinase 3 (Homo sapiens), sequence (O43293 whole entry, looked up): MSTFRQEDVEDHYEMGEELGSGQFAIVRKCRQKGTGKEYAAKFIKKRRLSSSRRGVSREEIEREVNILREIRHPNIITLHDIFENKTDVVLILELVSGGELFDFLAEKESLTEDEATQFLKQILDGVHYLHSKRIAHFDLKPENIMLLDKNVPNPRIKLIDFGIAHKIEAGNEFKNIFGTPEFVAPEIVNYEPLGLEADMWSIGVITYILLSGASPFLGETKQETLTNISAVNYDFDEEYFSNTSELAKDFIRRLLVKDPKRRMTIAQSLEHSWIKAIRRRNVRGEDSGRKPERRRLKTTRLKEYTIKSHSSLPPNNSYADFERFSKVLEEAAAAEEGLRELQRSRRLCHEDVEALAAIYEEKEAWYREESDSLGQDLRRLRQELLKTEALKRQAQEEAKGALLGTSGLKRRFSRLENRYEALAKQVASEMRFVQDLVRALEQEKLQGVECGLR
STE20-like serine/threonine-protein kinase, sequence (Q9H2G2 whole entry, looked up): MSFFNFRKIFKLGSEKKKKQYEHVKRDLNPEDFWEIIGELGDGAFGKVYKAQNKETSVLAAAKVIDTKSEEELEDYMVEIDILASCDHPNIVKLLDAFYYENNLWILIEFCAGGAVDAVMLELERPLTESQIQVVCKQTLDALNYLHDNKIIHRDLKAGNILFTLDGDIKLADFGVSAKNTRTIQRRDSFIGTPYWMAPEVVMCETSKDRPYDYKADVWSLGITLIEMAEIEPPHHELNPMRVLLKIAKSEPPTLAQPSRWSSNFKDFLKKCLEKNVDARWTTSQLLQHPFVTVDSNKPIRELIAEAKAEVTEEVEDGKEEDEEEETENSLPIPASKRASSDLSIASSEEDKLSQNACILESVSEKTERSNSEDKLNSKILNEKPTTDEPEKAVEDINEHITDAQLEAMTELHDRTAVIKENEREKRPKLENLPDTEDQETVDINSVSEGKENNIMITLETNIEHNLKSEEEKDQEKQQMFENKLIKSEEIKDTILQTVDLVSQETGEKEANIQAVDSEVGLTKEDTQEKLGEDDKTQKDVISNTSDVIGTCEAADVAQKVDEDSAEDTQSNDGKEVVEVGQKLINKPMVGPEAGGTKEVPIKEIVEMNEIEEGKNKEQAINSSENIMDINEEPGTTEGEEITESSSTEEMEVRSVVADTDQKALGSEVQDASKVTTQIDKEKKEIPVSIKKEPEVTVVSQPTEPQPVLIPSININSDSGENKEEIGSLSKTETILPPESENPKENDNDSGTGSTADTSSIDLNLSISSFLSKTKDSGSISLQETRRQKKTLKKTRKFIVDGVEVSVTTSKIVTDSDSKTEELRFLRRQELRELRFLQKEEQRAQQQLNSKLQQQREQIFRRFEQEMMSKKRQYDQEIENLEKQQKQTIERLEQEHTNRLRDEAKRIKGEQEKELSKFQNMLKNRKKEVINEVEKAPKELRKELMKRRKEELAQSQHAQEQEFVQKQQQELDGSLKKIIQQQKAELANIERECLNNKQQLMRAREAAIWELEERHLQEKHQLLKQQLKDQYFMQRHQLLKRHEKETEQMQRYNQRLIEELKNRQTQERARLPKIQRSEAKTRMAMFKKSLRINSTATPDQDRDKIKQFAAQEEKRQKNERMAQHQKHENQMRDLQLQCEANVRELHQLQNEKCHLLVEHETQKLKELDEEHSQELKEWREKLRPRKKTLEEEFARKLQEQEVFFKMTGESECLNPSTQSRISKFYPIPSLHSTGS
Epithelial discoidin domain-containing receptor 1 (Homo sapiens), sequence (Q08345 whole entry, the tested form may be a part): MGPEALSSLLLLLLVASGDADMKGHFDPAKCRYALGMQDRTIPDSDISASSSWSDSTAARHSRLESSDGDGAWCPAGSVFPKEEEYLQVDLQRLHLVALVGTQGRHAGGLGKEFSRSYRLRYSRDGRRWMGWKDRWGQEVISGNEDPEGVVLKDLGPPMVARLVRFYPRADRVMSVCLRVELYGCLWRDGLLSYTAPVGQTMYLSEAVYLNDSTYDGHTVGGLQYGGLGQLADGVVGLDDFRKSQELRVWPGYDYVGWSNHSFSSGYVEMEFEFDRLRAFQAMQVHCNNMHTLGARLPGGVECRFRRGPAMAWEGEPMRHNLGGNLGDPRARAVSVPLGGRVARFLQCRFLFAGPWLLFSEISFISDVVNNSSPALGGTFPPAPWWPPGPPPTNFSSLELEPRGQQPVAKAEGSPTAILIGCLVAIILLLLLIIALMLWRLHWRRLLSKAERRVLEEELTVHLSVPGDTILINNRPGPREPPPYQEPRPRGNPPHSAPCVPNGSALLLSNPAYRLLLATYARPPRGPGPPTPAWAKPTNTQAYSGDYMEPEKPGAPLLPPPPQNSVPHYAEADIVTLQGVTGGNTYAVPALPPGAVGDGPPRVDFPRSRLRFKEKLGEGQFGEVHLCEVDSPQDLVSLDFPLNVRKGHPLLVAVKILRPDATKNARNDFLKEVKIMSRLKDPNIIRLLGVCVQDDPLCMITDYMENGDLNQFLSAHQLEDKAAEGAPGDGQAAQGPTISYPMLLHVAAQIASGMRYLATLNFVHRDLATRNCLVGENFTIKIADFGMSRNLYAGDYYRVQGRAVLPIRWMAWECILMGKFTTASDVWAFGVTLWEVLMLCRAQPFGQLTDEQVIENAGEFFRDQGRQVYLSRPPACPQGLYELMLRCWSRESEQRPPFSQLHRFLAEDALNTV
Cyclin-dependent kinase 8, sequence (P49336 whole entry): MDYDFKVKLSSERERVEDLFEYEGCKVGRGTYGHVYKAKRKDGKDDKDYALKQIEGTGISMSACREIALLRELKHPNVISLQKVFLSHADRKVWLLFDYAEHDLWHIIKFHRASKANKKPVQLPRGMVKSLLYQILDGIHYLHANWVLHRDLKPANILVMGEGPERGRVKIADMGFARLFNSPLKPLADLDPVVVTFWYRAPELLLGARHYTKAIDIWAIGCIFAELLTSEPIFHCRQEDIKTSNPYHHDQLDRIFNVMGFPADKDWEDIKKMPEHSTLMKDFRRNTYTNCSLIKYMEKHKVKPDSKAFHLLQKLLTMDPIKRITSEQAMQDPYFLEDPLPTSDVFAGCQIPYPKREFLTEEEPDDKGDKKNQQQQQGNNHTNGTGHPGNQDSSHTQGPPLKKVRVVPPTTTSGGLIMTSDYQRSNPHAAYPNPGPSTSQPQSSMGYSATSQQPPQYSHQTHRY
Hepatocyte growth factor receptor (Homo sapiens), P08581 [M1250T], sequence (P08581 whole entry M1250T): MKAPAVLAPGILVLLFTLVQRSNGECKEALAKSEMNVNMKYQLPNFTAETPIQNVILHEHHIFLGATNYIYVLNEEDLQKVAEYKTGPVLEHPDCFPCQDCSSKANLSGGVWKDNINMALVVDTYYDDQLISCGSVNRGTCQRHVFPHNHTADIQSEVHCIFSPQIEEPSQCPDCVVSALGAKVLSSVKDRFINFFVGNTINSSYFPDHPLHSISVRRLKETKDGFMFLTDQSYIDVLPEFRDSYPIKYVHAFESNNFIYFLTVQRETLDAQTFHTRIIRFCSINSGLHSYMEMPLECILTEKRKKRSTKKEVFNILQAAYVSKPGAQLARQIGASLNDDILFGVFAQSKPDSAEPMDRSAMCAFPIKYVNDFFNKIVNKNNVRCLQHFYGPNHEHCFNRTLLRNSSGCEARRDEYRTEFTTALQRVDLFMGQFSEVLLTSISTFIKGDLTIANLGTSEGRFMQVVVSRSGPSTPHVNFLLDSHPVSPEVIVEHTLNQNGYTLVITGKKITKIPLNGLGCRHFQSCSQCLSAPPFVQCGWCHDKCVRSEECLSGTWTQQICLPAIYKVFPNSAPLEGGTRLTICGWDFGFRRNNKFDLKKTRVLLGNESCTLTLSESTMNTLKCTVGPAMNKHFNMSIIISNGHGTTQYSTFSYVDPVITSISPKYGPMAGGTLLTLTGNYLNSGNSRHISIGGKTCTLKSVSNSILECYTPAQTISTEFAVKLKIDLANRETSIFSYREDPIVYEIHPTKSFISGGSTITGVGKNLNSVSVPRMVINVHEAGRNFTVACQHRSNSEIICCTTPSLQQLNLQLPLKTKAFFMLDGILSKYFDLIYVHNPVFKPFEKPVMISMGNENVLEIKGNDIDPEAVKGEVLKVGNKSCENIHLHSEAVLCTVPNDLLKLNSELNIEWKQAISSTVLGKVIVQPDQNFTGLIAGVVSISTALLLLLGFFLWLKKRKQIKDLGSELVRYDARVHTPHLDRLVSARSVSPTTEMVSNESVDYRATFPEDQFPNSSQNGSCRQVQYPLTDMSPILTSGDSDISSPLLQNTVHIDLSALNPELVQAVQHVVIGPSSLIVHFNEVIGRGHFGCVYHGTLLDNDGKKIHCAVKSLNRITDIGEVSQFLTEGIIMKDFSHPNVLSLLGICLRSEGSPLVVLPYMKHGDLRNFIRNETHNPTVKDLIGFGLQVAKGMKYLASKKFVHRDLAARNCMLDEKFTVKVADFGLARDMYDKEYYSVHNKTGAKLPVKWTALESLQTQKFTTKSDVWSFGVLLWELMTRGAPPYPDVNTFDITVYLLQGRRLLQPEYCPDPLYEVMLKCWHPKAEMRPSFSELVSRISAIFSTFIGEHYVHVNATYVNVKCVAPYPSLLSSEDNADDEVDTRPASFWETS
5-hydroxytryptamine receptor 7 (Homo sapiens), sequence (P34969 whole entry): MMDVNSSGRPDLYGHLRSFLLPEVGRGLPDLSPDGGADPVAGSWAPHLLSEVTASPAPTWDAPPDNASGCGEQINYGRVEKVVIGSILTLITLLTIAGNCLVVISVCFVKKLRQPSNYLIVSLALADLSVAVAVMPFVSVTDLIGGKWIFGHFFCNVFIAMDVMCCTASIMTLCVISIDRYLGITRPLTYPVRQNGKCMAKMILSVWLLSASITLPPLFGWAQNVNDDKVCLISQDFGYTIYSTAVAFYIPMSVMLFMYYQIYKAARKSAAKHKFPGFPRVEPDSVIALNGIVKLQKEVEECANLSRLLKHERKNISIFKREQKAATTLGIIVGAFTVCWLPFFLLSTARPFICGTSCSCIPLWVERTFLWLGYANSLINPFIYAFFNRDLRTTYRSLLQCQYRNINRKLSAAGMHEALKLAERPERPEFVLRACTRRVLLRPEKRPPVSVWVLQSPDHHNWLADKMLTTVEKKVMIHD

`COCC(=O)NC/C=C/c1ccc2ncnc(Nc3ccc(Oc4ccc(C)nc4)c(C)c3)c2c1` [CP-724714] gave a % of control in assay [1] of 100%.

Regarding `CCN(CC)CCCCNc1ncc2cc(-c3cc(OC)cc(OC)c3)c(NC(=O)NC(C)(C)C)nc2n1`, the % of control in [2] turned out to be 100%.

For `Cc1cnc(Nc2ccc(F)cc2Cl)nc1-c1c[nH]c(C(=O)N[C@H](CO)c2cccc(Cl)c2)c1`, in [3], the Ki is > 4 µM.

Take `C=CC(=O)Nc1cc(-n2c(=O)ccc3cnc4ccc(-c5ccc(NS(C)(=O)=O)cc5)cc4c32)ccc1C`: the % of control in assay [4] (at 1 µM) stood at 100%; in [4] (at 10 µM) it was 60%.

`C=CC(=O)Nc1cccc(C(=O)Nc2ccc(Nc3cc(-c4[nH]c(SC)nc4C)ccn3)cc2)c1`: the % of control in assay [5] (at 1 µM) worked out at 100%; in [5] (at 5 µM), 73%.

`CN(C)C/C=C/C(=O)Nc1ccc(C(=O)N2CCCC(Nc3ncc(Cl)c(-c4c[nH]c5ccccc45)n3)C2)cc1` (stereo not given) registered a % of control in assay [6] of 93%.

For the molecule `CCC(=O)N1CC[C@H](Nc2ncnc3c2CN(c2cnc(OC)c(C(F)(F)F)c2)CC3)C1` [LENIOLISIB], the IC50 in assay [7] is > 10 µM.

In the case of `CN(C)CCOc1ccc(-c2nc(-c3ccncc3)c(-c3ccc4c(c3)CC/C4=N\O)[nH]2)cc1`, the % of control in assay [8] came out at 83%; in [9], 100%.

In assay [10], `CCC(=O)N1CCN(c2ccc(-n3c(=O)ccc4cnc5ccc(-c6cnc7ccccc7c6)cc5c43)cc2C(F)(F)F)CC1` returned a % of control of 100%.

Consider `CC(C)(O)[C@H](F)CN1Cc2cc(NC(=O)c3cnn4cccnc34)c(N3CCOCC3)cc2C1=O`, for which the dTM in assay [11] was -0.3 K.

In assay [12], `Nc1cnc(N2CCc3cc(S(=O)(=O)Nc4c(F)cc(Cl)cc4F)cc(N4CCCC4=O)c32)nc1` [TP-020n] showed a % of inhibition of 0.94%.

For `C=CC(=O)Nc1ccc(C(=O)Nc2[nH]nc3c2CN(C(=O)N[C@H](CN(C)C)c2ccccc2)C3(C)C)cc1`, the % of engagement in assay [13] amounted to 13%.
